Results on 2 molecules are retold here after patent US20240415834A1, “LURBINECTEDIN AND ATEZOLIZUMAB COMBINATIONS” (priority 2021, published 2024).

Where two headings read alike, the source gives them in different places.

One data set relates to A-549. Put plainly: MTT short-term viability assay, 72 hours exposure. It is filed as cell-based. The note with it: Homo sapiens, A549, Lung, read-out: IG50 (the source's name). On the procedure:
(§1) The antineoplastic in vitro activity of lurbinectedin was evaluated in a panel of solid tumour cell lines (some of which are shown in Table 1), which were exposed to a range of lurbinectedin concentrations for 72 hours and then assayed for viability by a MTT short-term assay.

Another data set concerns A2780. Put plainly: MTT short-term viability assay, 72 hours exposure. The data set is classed as cell-based. The note with it: Homo sapiens, Ovarian, read-out: IG50 (the source's name). On the procedure: as §1
Another data set relates to BT-474. Description: MTT short-term viability assay, 72 hours exposure. The data set is classed as cell-based. The note with it: Homo sapiens, Breast, read-out: IG50 (the source's name). The procedure: as §1
Another data set relates to HCT 116. Put plainly: MTT short-term viability assay, 72 hours exposure. It is filed as cell-based. The note with it: Homo sapiens, Colon, read-out: IG50 (the source's name). On the procedure: as §1
Another data set has as its system HT-29. Put plainly: MTT short-term viability assay, 72 hours exposure. It is filed as cell-based. The note with it: Homo sapiens, Colon, read-out: IG50 (the source's name). On the procedure: as §1
The subject of the next data set is IGROV-1. Description: MTT short-term viability assay, 72 hours exposure. The data set is classed as cell-based. Particulars: Homo sapiens, Ovarian, read-out: IG50 (the source's name). On the procedure: as §1
The next data set relates to LoVo. Put plainly: MTT short-term viability assay, 72 hours exposure. The data set is classed as cell-based. The note with it: Homo sapiens, Colon, read-out: IG50 (the source's name). On the procedure: as §1
Another data set has as its system MCF-7. Description: MTT short-term viability assay, 72 hours exposure. It is filed as cell-based. The note with it: Homo sapiens, MCF7, Breast, read-out: IG50 (the source's name). On the procedure:
as §1

In the next data set the test system is MDA-MB-231. Description: MTT short-term viability assay, 72 hours exposure. The data set is classed as cell-based. Particulars: Homo sapiens, Breast, read-out: IG50 (the source's name). The procedure: as §1
Another data set deals with MiaPaca-2. Put plainly: MTT short-term viability assay, 72 hours exposure. It is filed as cell-based. Particulars: Homo sapiens, MIA PaCa-2, Pancreas, read-out: IG50 (the source's name). On the procedure:
as §1

A further data set relates to NCl-H23. Put plainly: MTT short-term viability assay, 72 hours exposure. Particulars: Lung, read-out: IG50 (the source's name). It is filed as cell-based. The procedure: as §1
For a further data set, the system named is NCl-H460. Description: MTT short-term viability assay, 72 hours exposure. The data set is classed as cell-based. The note with it: Lung, read-out: IG50 (the source's name). On the procedure:
as §1

In a further data set the test system is PANC-1. Put plainly: MTT short-term viability assay, 72 hours exposure. It is filed as cell-based. Particulars: Homo sapiens, Pancreas, read-out: IG50 (the source's name). The procedure:
as §1

In data set [1] the test system is broad selection of tumour-derived cell lines. Put plainly: In vitro cytotoxic effects against tumour-derived cell lines. It is filed as cell-based. The note with it: read-out: median IC50.
In the next data set the test system is LXFL 529 lung xenograft. Description: In vivo antitumour activity in xenografts. Also on record: species or system athymic mice. The note with it: Lung LXFL 529; Q7d × 3; 0.18 mg/kg/day (0.54 mg/m^2/day); optimal day D-28.
For data set [2], the system named is UM-UC-3 bladder xenograft. Put plainly: In vivo antitumour activity in xenografts. Also on record: species or system athymic mice. The note with it: Bladder UM-UC-3; Qd × 5 × 2; 0.06 mg/kg/day (0.18 mg/m^2/day); optimal day D-23.
Data set [3] has as its system MDA-MB-231 breast xenograft. Description: In vivo antitumour activity in xenografts. Particulars: Breast MDA-MB-231; Q7d × 3; 0.18 mg/kg/day (0.54 mg/m^2/day); optimal day D-34. Also noted: species or system athymic mice.
For the next data set, the system named is MX-1 breast xenograft. Description: In vivo antitumour activity in xenografts. Also noted: species or system athymic mice. The note with it: Breast MX-1; Q7d × 3; 0.18 mg/kg/day (0.54 mg/m^2/day); optimal day D-21.
The test system of the next data set is A2780 ovary xenograft. Put plainly: In vivo antitumour activity in xenografts. Also on record: species or system athymic mice. Particulars: Q7d × 3, 0.18 mg/kg/day (0.54 mg/m^2/day), optimal day D-17.
Data set [4] concerns Capan-1 pancreas xenograft. Put plainly: In vivo antitumour activity in xenografts. Also on record: species or system athymic mice. Particulars: Pancreas Capan-1; Q7d × 3; 0.18 mg/kg/day (0.54 mg/m^2/day); optimal day D-61.
A further data set concerns PC-3 prostate xenograft. Description: In vivo antitumour activity in xenografts. Also on record: species or system athymic mice. The note with it: Prostate PC-3; Q7d × 3; 0.18 mg/kg/day (0.54 mg/m^2/day); optimal day D-27.
In data set [5] the test system is human-derived tumour xenografts. Put plainly: Tumour susceptibility in xenografts of human-derived tumour types. The data set is classed as in vivo, athymic mice. The note with it: single bolus i.v. at rodent MTD 0.3 mg/kg.
The nature of data set [6]: Cardiovascular parameters (ABP, HR, lead II ECG) after single bolus injection in dogs. Particulars: six hours, doses up to 0.01 mg/kg (0.2 mg/m^2). It is filed as in vivo.
The nature of data set [7]: Toxicity studies: HR and ECGs of dogs after single or repeated administration. It is filed as in vivo. The note with it: doses up to 0.05 mg/kg (1 mg/m^2).
The subject of data set [8] is patients with advanced and refractory solid tumours. Also on record: species or system human. Particulars: in vivo. On the procedure:
The completed PM1183-A-001-08 phase I trial evaluated i.v. lurbinectedin in human patients for the first time, when infused over one hour (h) every three weeks (q3 wk) in 31 patients with advanced and refractory solid tumours. Among these, 15 (48.4%) patients were treated at the defined recommended dose (RD). The RD for phase II studies was defined at a PM01183 dose of 4.0 mg/m^2 q3 wk-equivalent to a 7.0 mg flat dose (FD) q3 wk. […] No signs of cumulative toxicity were observed.

Data set [9] can be described thus: Pooled logistic regression analysis of phase II data, review of recommended dose. The data set is classed as in vivo, human. Particulars: q3 wk, BSA-based dosing, to limit severe myelosuppression. On the procedure: Owing to these findings, all actively recruiting and planned studies now use BSA-based dosing to limit severe myelosuppression. The original RD of 4.0 mg/m^2 q3 wk has been reviewed and reduced to 3.2 mg/m^2 q3 wk for the same reason.

The subject of the next data set is CYP isoforms. Put plainly: In vitro metabolism studies with human microsomes. It is filed as in vitro ADME. The note with it: followed by CYP2E1, CYP2D6 and CYP2C9. The text has this:
The estimated contribution of the other CYP isoenzymes to the PM01183 metabolism is considered to be negligible. Therefore, concomitant drugs which induce or inhibit any of these cytochromes, especially CYP3A4, should be carefully monitored or avoided, whenever is possible.

Data set [10] is described as follows: PM1183-A-008-13 phase I study, interaction with aprepitant. Particulars: in the presence of aprepitant (CYP3A4 inhibitor), patients. It is filed as in vivo, human. From the text:
PM01183 clearance was reduced by 50%, approximately, in the presence of aprepitant. Although all patients eventually recovered, the use of aprepitant is currently forbidden in all PM01183 studies.

The conditions of data set [11]: rat, in vivo.
For data set [12] the following is noted: dog, in vivo.
In data set [13] the test system is patients with metastatic SCLC. Particulars: cited from earlier work.
The nature of a further data set: in vivo. Particulars: rodent, iv.
The test system of a further data set is patients with ES-SCLC. Particulars: IMpower133; cited from earlier work.

As to `COc1ccc2[nH]c3c(c2c1)CCN[C@]31CS[C@@H]2c3c(OC(C)=O)c(C)c4c(c3[C@H](COC1=O)N1[C@@H]2[C@H]2c3c(cc(C)c(OC)c3O)C[C@@H]([C@@H]1O)N2C)OCO4` [PM01183, lurbinectedin], the IC50 in the data set with A-549 was 1.3 nM; in the data set with A2780, 1.6 nM; in the data set with BT-474, 1.3 nM; in the data set on HCT 116, 65 nM; in the data set with HT-29 it was 2.4 nM; in the data set with IGROV-1, 9.8 nM. Further, the IC50 with LoVo was found to be 2 nM; in the data set with MCF-7 it was 1.7 nM; in the data set with MDA-MB-231, 3.5 nM; in the data set on MiaPaca-2 it was 1.1 nM; in the data set with NCl-H23, 0.54 nM; with NCl-H460 it was 1.6 nM. Further, the IC50 in the data set on PANC-1 is 2.9 nM; in data set [1], about 0.1 nM. Further, the T/C % in the data set on LXFL 529 lung xenograft is on record as 5%; in [2], 58%; in data set [3] it was 40%; with MX-1 breast xenograft it was 0%; in the data set on A2780 ovary xenograft, 34%; in data set [4], 61%. In addition, in the data set on PC-3 prostate xenograft, the T/C % is listed as 65%. In addition, the “antitumour activity against bladder, pancreas and prostate xenografts” value in data set [5] is recorded as “more moderate antitumour profile”. The “antitumour activity against breast, lung and ovarian xenografts” value in data set [5] (different time points) is listed as “statistically significant antitumour activity (p<0.05)”. Further, the “effects on heart, ABP, lead II ECG variables (PR, QT, QTcF, QTcV, QRS), ECG gross morphology or rhythm” value in [6] is “no effects”. Also, the “electrophysiological alterations in HR and ECGs” value in data set [7] is given as “no electrophysiological alterations”. Besides, in data set [8] (human), the “dose-limiting toxicity (DLT) at the RD” value is on record as “grade 4 thrombocytopenia”. Also, in [8] (human), the “inter-patient variability in the area under the curve [AUC]” value is over 50.0%. Moreover, the “recommended dose, equivalent flat dose (FD)” value in [8] (human) is reported as 7.0 mg. Further, the “recommended dose (RD) for phase II studies” value in data set [8] (human, iv) is given as 4.0 mg/m^2. Besides, the PK dose linearity result in data set [8] is “linearity across all explored doses”. In addition, in data set [8], the “tolerability at the RD” value is listed as “generally well tolerated”. The “recommended dose, reviewed and reduced” value in data set [9] came out at 3.2 mg/m^2. Besides, the “major CYP isoform involved in the metabolism” value in the data set on CYP isoforms was “CYP3A4”. Besides, the clearance reduction in data set [10] is recorded as about 50%. Besides, the “main target organs of toxicity” value in data set [11] was “bone marrow and the liver”; in data set [12] it was “bone marrow and the liver”. The median response duration in [13] (independent review committee, 95% CI 4.9, 6.4) was 5.1 months; in data set [13] (investigator assessment, 95% CI 4.1, 6.4) it was 5.3 months. Moreover, the ORR is listed as 30% in [13] (independent review committee, 95% CI 22%, 40%) and 35% in data set [13] (investigator assessment RECIST 1.1, 105 patients, 3.2 mg/m^2 i.v. every 21 days, 95% CI 26%, 45%). In “in vivo”, this molecule gave an MTD of 0.3 mg/kg.

In the case of “atezolizumab: humanized IgG1 monoclonal antibody that targets human PD-L1”, in the data set with patients with ES-SCLC, the “most common adverse reaction reported in ≥20% of patients” value was “fatigue/asthenia, nausea, alopecia, constipation and decreased appetite”.
